What was measured:
JNK phosphorylation = test: JNK Activation Assay (western blot), Panc-1; type: cell-based, human; conditions: at 10 μM, Panc-1 pancreatic cancer cell line; starred symbols = activation
Method: Protocol for JNK Activation Assay
This assay is referred to as the “JNK Activation Assay” throughout this application.
Cell lines: Human tumor-derived pancreatic cancer cell line Panc-1 (expressing KRas […] mutant) was purchased from American Type Culture Collection and grown in complete DMEM-High Glucose medium, supplemented with penicillin (100 U/mL), streptomycin (100 μg/mL), and 10% heat-inactivated FBS at 37° C. in a humidified incubator with 5% CO2.
Method 1: Cells were plated at 350000 cells/well density in a 12-well plate, allowed 3 hours to adhere to the plate, then starved in the appropriate medium in the presence of 0.5% FBS overnight. The small molecules to be tested were added to the cells in the final concentration of 10 μM in the presence of 0.3% DMSO for 6 hours incubation at 37° C. For IC50 value determination, serial dilutions of compounds were added to cells under the same conditions. Next, cells were stimulated with 1.5 ng/ml EGF for 15 minutes then cells were lysed with lysis buffer containing 1% Triton X-100, EDTA, and Halt™ Protease & Phosphatase Inhibitor Cocktail (Thermo Scientific). Protein concentration was assessed by BCA protein assay (Thermo Scientific). Phosphorylation level of JNK was determined by western blot.
Method 2: Cells were plated at 350000 cells/well density in a 12-well plate in the presence of 10% FBS. The next day small molecules to be tested were added to the cells in the final concentration of 10 μM in the presence of 0.3% DMSO for 6 hours incubation at 37° C. For IC50 value determination, serial dilutions of compounds were added to cells under the same conditions. Next, cells were lysed with lysis buffer containing 1% Triton X-100, EDTA, and Halt™ Protease & Phosphatase Inhibitor Cocktail (Thermo Scientific). Protein concentration was assessed by BCA protein assay (Thermo Scientific). Phosphorylation level of JNK was determined by western blot.
Western blot protocol: Equal amounts of protein (15-50 μg) were separated by SDS-PAGE and transferred to nitrocellulose membranes (Invitrogen by Thermo Fisher Scientific). The membrane was stained with Ponceau S Stain (Boston BioProducts) to verify uniform protein loading. Membranes were blocked with 10% milk and phosphorylation levels of JNK were assessed by incubating overnight at 4° C. with the antibody Phospho-SAPK/JNK (Thr183/Tyr185), from Cell Signaling Technology. Then the membranes were incubated with HRP-conjugated secondary antibody (Jackson Immunoresearch, West Grove, PA). Bands were incubated in Amersham ECL Prime Western Blotting Detection Reagent (GE Healthcare) and visualized using the ChemiDoc MP imaging system (Bio-Rad).

A375 (wild type Kras) = test: Proliferation Assay (Cell Viability Assay); type: cell-based; conditions: Homo sapiens, A-375; Proliferation assay, A375; read-out: A375 IC50 (nM) Melanoma
Summary of the method: (§1)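 Cells plated at 2000–5000/well overnight, then treated 2–4 days at 37 °C, 5% CO2 with compound at 10 μM single dose or serial dilutions for IC50, in 0.3% DMSO and 10% FBS. Viability read by CellTiter 96 Aqueous One (MTS); % proliferation inhibition calculated from raw data.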

[1] = tested on: BT-549 (expressing wild type KRAS); test: Proliferation Assay (Cell Viability Assay); type: cell-based; conditions: Homo sapiens, BT-549; Proliferation assay, BT549; read-out: BT549 IC50 (nM) TNBC
Summary of the method: as §1

[2] = tested on: GP2d (expressing KRas G12D mutant); test: Proliferation Assay (Cell Viability Assay); type: cell-based; conditions: Homo sapiens, Proliferation assay, read-out: GP2d IC50 (nM) Colorectal
Summary of the method: as §1

[3] = tested on: NCI-H358 (expressing KRas G12C mutant); test: Proliferation Assay (Cell Viability Assay); type: cell-based; conditions: Homo sapiens; Proliferation assay, NCI-H358; read-out: NCI-H358 IC50 (nM) NSCLC
Summary of the method: as §1

[4] = tested on: MM.1R (expressing wild type KRAS); test: Proliferation Assay (Cell Viability Assay); type: cell-based; conditions: Homo sapiens, read-out: MM.1R IC50 (nM) Multiple Myloma
Summary of the method: as §1

| SMILES | % inh of JNK in Panc-1 (JNK phosphorylation) | IC50 (A375 (wild type Kras)) | IC50 [1] | IC50 [2] | IC50 [3] | IC50 [4] |
| --- | --- | --- | --- | --- | --- | --- |
| COC1CCCN(c2nc(-c3ccccn3)nn3cc(-c4ccn(C(C)C)n4)c(C)c23)C1 (racemic) [Compound 12, rac 6-(1-Isopropyl-1H-pyrazol-3-yl)-4-(3-methoxypiperidin-1-yl)-5-methyl-2-(pyridin-2-yl)pyrrolo[2,1-f][1,2,4]triazine] | E* (E* = 1-30% activation) | – | – | – | – | – |
| Cc1c(-c2ccn(C)n2)cn2nc(-c3nccn3C)nc(Nc3cc(N4CCOCC4)ccn3)c12 [Compound 222, 5-Methyl-2-(1-methyl-1H-imidazol-2-yl)-6-(1-methyl-1H-pyrazol-3-yl)-N-(4-morpholinopyridin-2-yl)pyrrolo[2,1-f][1,2,4]triazin-4-amine] | – | > 50 nM | 10 to 50 nM | > 50 nM | 10 to 50 nM | < 1 nM |
| COc1cc(Nc2nc(-c3ccccn3)nn3cc(-c4ccn(C(C)C)n4)c(C)c23)ncn1 [Compound 13, 6-(1-Isopropyl-1H-pyrazol-3-yl)-N-(6-methoxypyrimidin-4-yl)-5-methyl-2-(pyridin-2-yl)pyrrolo[2,1-f][1,2,4]triazin-4-amine] | H* (H* ≥ 100% activation) | – | – | – | – | – |
| COc1cccc(Nc2nc(-c3ccccn3)nn3cc(-c4ccn(C(C)C)n4)c(C)c23)n1 [Compound 14, 6-(1-Isopropyl-1H-pyrazol-3-yl)-N-(6-methoxypyridin-2-yl)-5-methyl-2-(pyridin-2-yl)pyrrolo[2,1-f][1,2,4]triazin-4-amine] | F* (F* = 31-74% activation) | – | – | – | – | – |
| Cc1c(-c2ccn(C)n2)cn2nc(-c3nccn3C)nc(Nc3cc4c(cn3)CCO4)c12 [Compound 221, N-(5-Methyl-2-(1-methyl-1H-imidazol-2-yl)-6-(1-methyl-1H-pyrazol-3-yl)pyrrolo[2,1-f][1,2,4]triazin-4-yl)-2,3-dihydrofuro[3,2-c]pyridin-6-amine] | – | > 50 nM | > 50 nM | > 50 nM | 10 to 50 nM | < 1 nM |
| COCC1CCN(c2nc(-c3ccccn3)nn3cc(-c4ccn(C(C)C)n4)c(C)c23)C1 (racemic) [Compound 10, rac 6-(1-Isopropyl-1H-pyrazol-3-yl)-4-(3-(methoxymethyl)pyrrolidin-1-yl)-5-methyl-2-(pyridin-2-yl)pyrrolo[2,1-f][1,2,4]triazine] | E* (E* = 1-30% activation) | – | – | – | – | – |
| COc1cc(Nc2nc(-c3nccn3C)nn3cc(-c4ccn(C)n4)c(C)c23)ncc1C [Compound 235, N-(4-Methoxy-5-methylpyridin-2-yl)-5-methyl-2-(1-methyl-1H-imidazol-2-yl)-6-(1-methyl-1H-pyrazol-3-yl)pyrrolo[2,1-f][1,2,4]triazin-4-amine] | – | > 50 nM | 10 to 50 nM | > 50 nM | > 50 nM | < 1 nM |
| COc1cccc(-c2cn3nc(-c4nccn4C)nc(O)c3c2C)c1Cl [Compound 15, 6-(2-Chloro-3-methoxyphenyl)-5-methyl-2-(1-methyl-1H-imidazol-2-yl)pyrrolo[2,1-f][1,2,4]triazin-4-ol] | F* (F* = 31-74% activation) | – | – | – | – | – |
| COCCNc1nc(-c2nccn2C)nn2cc(-c3cccc(OC)c3Cl)c(C)c12 [Compound 16, 6-(2-Chloro-3-methoxyphenyl)-N-(2-methoxyethyl)-5-methyl-2-(1-methyl-1H-imidazol-2-yl)pyrrolo[2,1-f][1,2,4]triazin-4-amine] | F* (F* = 31-74% activation) | – | – | – | – | – |
| COc1cc(Nc2nc(-c3nccn3C)nn3cc(-c4ccn(C)n4)c(C)c23)ncc1C1CC1 [Compound 238, N-(5-Cyclopropyl-4-methoxypyridin-2-yl)-5-methyl-2-(1-methyl-1H-imidazol-2-yl)-6-(1-methyl-1H-pyrazol-3-yl)pyrrolo[2,1-f][1,2,4]triazin-4-amine] | – | > 50 nM | 10 to 50 nM | > 50 nM | > 50 nM | < 1 nM |
| COC[C@@H]1CC[C@@H]1CNc1nc(-c2ccccn2)nn2cc(-c3ccn(C(C)C)n3)c(C)c12 (racemic) [Compound 11, rac 6-(1-Isopropyl-1H-pyrazol-3-yl)-N-(((1S,2R)-2-(methoxymethyl)cyclobutyl)methyl)-5-methyl-2-(pyridin-2-yl)pyrrolo[2,1-f][1,2,4]triazin-4-amine] | G* (G* = 75-99% activation) | – | – | – | – | – |
